Measurements taken from patent US20050014835A1, “Agents for Treating Diseases Caused by Nonsense Mutations” (priority 2001, published 2005).

What was measured:
dystrophin [1] = assay: Immunofluorescence staining of dystrophin in TA muscle of drug-treated mdx mice; type: in vivo
Protocol: (§1) Mdx mice were used as a dystrophy mouse model. NM was dissolved in PBS and Millipore-filtered just before injection, in order to avoid degradation during storage in solution. Mdx mice (male, seven week-old, six for each dose) were injected subcutaneously with an NM solution (137 mM NaCl, 2.68 mM KCl, 8.10 mM […], and 1.47 mM KH2PO4) prepared using PBS, at half the concentration (1.2×10^−5 mol/kg) of the solution in the GM experiment by Barton-Davis et al. (Barton-Davis, E. R., Cordiner, L. Shoturma, D. I., Leiland, S. E., Sweeney, H. L. (1999) Aminoglycoside antibiotics restore dystrophin function to skeletal muscles of mdx mice. J. Clin. Invest. 104, 375-381) every day for two weeks. Control mdx mice (n=6) and C57BL/10 (B10, n=6) mice were injected with PBS (0.1 ml) alone, every day for two weeks.
(§2) After injection, immunofluorescence and Evans Blue staining were performed to detect dystrophin. Immunofluoresce staining was carried out as follows using antibodies against the C-terminus of dystrophin. Animals were sacrificed using an overdose of ether gas. The tibialis anterior (TA) muscles were removed and frozen in melting isopentane for immunohistochemistry. Then, 7 μm transverse cryosections were prepared. […] After labeling with secondary antibodies, dystrophin was detected by fluorescence microscopy, based on fluorescence emission. […]

TA muscle fibers = assay: Evans Blue Dye staining of degenerating muscle fibers in drug-treated mdx mice; type: in vivo; settings: 1.2×10^−5 mol/kg/day subcutaneously for two weeks, FIG. 2
Protocol: as §1, §2

[2] = Ototoxicity assay: hearing threshold by auditory brain stem response; type: in vivo, Mdx mouse; settings: 1.2×10^−4 mol/kg daily for seven days, measured one day after final injection
Protocol: One day after the final injection, the hearing threshold was measured based on auditory brain stem response, according to the method of Shapiro et al. (Shapiro, S. M., Moller, A. R., Shiu, G. K. Brain-stem auditory evoked potentials in rats with high-dose pentbarbital. (1984) Electroencephalogr. Clin. Neurophysiol. 58, 266-276).

[3] = type: in vivo; settings: highest dose 1.2×10^−3 mol/kg/day (100×)
Protocol: In order to measure changes in body weight due to drug administration, male mdx mice (seven weeks old, four for each dose) were injected daily with NM at 1.2×10^−5 mol/kg (1× the effective dose), 1.2×10^−4 mol/kg (10×), 6.0×10^−4 mol/kg (50×), or 1.2×10^−3 mol/kg (100×) for 14 days. The body weight of each mouse was measured everyday. Other mdx mice (seven weeks old, two for each dose) were injected with GM (1.2×10^−3 mol/kg [100×]) as a control test. Body weight was also measured every day.

dystrophin [4] = assay: Immunoblotting of dystrophin in cultured mdx-sk myotubes; type: cell-based, mdx mouse; settings: 100 μg/ml, seven days
Excerpt: (§3) The SV40T immortalized mdx satellite cell line, mdx-sk, was newly established from the mdx mouse to test the dystrophin restoring level in cultured mdx skeletal muscle cells. The mdx-sk line was established by introducing a retroviral vector carrying a cDNA for the temperature-sensitive form of the Simian Virus 40 large T antigen (a kind gift from Dr. Drinkwater) to a primary culture of mdx myoblasts obtained from the mdx mice. The retrovirus was produced using the packaging cell line, Plat-E, as previously described (Morita, S., Kojima, T., Kitamura, T. (2000) Plat-E: an efficient andstable system for transient packaging of retroviruses. Gene Therapy 7, 1063-1066). The cell line was cultured and maintained in Dulbecco's Modified Eagle Medium (DMEM)-high glucose (4,500 mg/l) supplemented with 20% fetal calf serum at 32.5° C. in a CO2 incubator. To induce muscle differentiation, the culture medium was changed to a differentiation medium (10% horse serum in Eagle MEM) and the culture temperature was shifted to 39.5° C.
After induction of differentiation, the cells were cultured, and NM (50 μg/ml (2.0×10^−4 mol/kg) or 100 μg/ml (4.0×10^−4 mol/kg) in a differentiation medium solution) was added to the culture. Then, the cells were allowed to differentiate by culturing in the medium without an antibiotic for seven days. […]

dystrophin [5] = assay: Immunofluorescence staining of dystrophin in cultured mdx-sk myotubes; type: cell-based, mdx mouse; settings: 50 μg/ml, seven days
Excerpt: as §3, with “39.5° C. […]” for “39.5° C.”
In order to examine whether NM can restore dystrophin expression in the mdx-sk cells established as described above, NM was added at a concentration of 50 μg/ml or 100 μg/ml to a differentiation medium of myotubes cultured for seven days, and then culture was continued for another seven days. […] The cells were then observed under a fluorescence microscope.

dystrophin [6] = assay: Immunoprecipitation and immunoblotting of dystrophin in muscles of NM-treated mdx mice; type: in vivo
Protocol: The left hind leg muscle (600 mg), the diaphragm (100 mg), and the cardiac muscle (100 mg) were collected from NM-treated mdx mice, NM-untreated mdx mice, and B10 mice as described above. Each of the specimens was homogenized in 15 ml of a homogenizing solution (pH 7.2) (pyrophosphate mixture, 20 mM Na4P2O7, 20 mM NaH2PO4, and 1 mM MgCl2, pH 7.1) containing 10% sucrose and 0.5 mM EDTA. The homogenization was carried out with a Teflon homogenizer at maximal speed for one minute (Mitchell, R. D., Palade, P., and Fleicher, S. (1983) Purification of morphologically intact triad structures from skeletal muscle. J. Cell Biol. 96, 1008-1016; Yoshida, M., Suzuki, A., Shimizu, T., and Ozawa, E. (1992) Proteinase-sensitive sites on isolated rabbit dystrophin. J. Biochem. 112, 433-439). The homogenate was centrifuged in an RA rotor (KUBOTA) at 9,000 rpm for 15 minutes. […]
Immunoprecipitation was performed as described by Abe et al. (Abe, M., Saitoh, O., Nakata, H., Yoda, A., and Matsuda, R. (1996) Expression of neurofilament proteins in proliferating C2C12 mouse skeletalmuscle cells. Exp. Cell Res. 229, 48-59) using muscle protein sample preparations prepared from mdx mice and B10 mice as described above. […] After boiling, the supernatant was collected, and the protein concentration thereof was determined by microburette method. […]

Compound	percentage of dystrophin-positive TA muscle fibers (dystrophin [1]; 1.2×10^−5 mol/kg/day subcutaneously for two weeks, FIG. 2)	dystrophin-positive fibers by immunofluorescence staining (dystrophin [1]; TA muscle, 1.2×10^−5 mol/kg subcutaneously every day for two weeks)	percentage of fibers with increased membrane permeability (EBD-positive fibers) (TA muscle fibers)	hearing loss by auditory brain stem response [2]	lethality [3]	dystrophin (427 kDa) band by immunoblotting (dystrophin [4])	dystrophin expression by immunofluorescence staining (dystrophin [5])	dystrophin expression level restored, relative to normal B10 hind leg muscle (dystrophin [6]; hind leg muscle, immunoblotting, estimated)	dystrophin bands by immunoblotting (dystrophin [6]; hind leg muscles (FIG. 3(1) G, H, I), 1.2×10^−5 mol/kg/day for two weeks, intensity lower than positive control B10)
CN(CC(=O)O)NC(=O)C[C@H](N)C[C@@H](O)CN [NM, negamycin]	higher than in GM-treated mdx mice	detected	lower in NM-treated mice than in GM-treated mice	not in NM-treated mice	not lethally toxic	a clear band was detected at the position of 427 kDa	strong fluorescence signals were detected	about 10%	dystrophin bands were detected
Gentamicin [GM, reference compound]	–	–	–	–	killed all of the tested mice within four hours	–	–	–	–
